Experimental data as given in ChEMBL document CHEMBL1201861, “Genomics of Drug Sensitity in Cancer screening data, Wellcome Trust Sanger Institute”.
Counter-ions that a name gives are not always drawn.

Tests used:
Experiment in all cases: cells
Assay type in all cases: functional, cell-based, Homo sapiens
NEC8 = system: NEC8;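 also: growth inhibition of human NEC8 cells, read out by a cell viability assay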
Description: SANGER: Inhibition of human NEC8 cell growth in a cell viability assay.

TE-15 = system: TE-15;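 also: cell viability readout of growth inhibition in TE-15 cells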
Description: SANGER: Inhibition of human TE-15 cell growth in a cell viability assay.

NB13 = system: NB13;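 also: cell viability readout measuring growth inhibition of human NB13 cells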
Description: SANGER: Inhibition of human NB13 cell growth in a cell viability assay.

D-336MG = conditions: Homo sapiens, D-336MG
Description: SANGER: Inhibition of human D-336MG cell growth in a cell viability assay.

LB996-RCC = system: LB996-RCC
Description: SANGER: Inhibition of human LB996-RCC cell growth in a cell viability assay.

ECC4 = system: ECC4;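 also: growth inhibition of ECC4 cells, read out with a cell viability assay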
Description: SANGER: Inhibition of human ECC4 cell growth in a cell viability assay.

Kasumi 1 = conditions: Homo sapiens, Kasumi 1;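 also: growth inhibition of human Kasumi-1 cells, read out by a cell viability assay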
Description: SANGER: Inhibition of human KASUMI-1 cell growth in a cell viability assay.

LB647-SCLC = system: LB647-SCLC;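 also: cell growth inhibition, read out by a viability assay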
Description: SANGER: Inhibition of human LB647-SCLC cell growth in a cell viability assay.

NCI-H23 = system: NCI-H23;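 also: cell viability assay measuring growth inhibition of NCI-H23 cells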
Description: SANGER: Inhibition of human NCI-H23 cell growth in a cell viability assay.

TGBC1TKB = system: TGBC1TKB;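 also: growth inhibition of TGBC1TKB cells, read out by a cell viability assay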
Description: SANGER: Inhibition of human TGBC1TKB cell growth in a cell viability assay.

COLO-320-HSR = system: COLO-320-HSR;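 also: growth inhibition of COLO-320-HSR cells, determined with a cell viability assay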
Description: SANGER: Inhibition of human COLO-320-HSR cell growth in a cell viability assay.

SNU-5 = system: SNU-5;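 also: cell viability readout used to measure growth inhibition in human NCI-SNU-5 cells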
Description: SANGER: Inhibition of human NCI-SNU-5 cell growth in a cell viability assay.

LOUCY = system: LOUCY;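 also: growth inhibition of human LOUCY cells, read out with a cell viability assay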
Description: SANGER: Inhibition of human LOUCY cell growth in a cell viability assay.

CCRF-CEM = system: CCRF-CEM;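 also: inhibition of CCRF-CEM cell growth, measured by a cell viability assay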
Description: SANGER: Inhibition of human CCRF-CEM cell growth in a cell viability assay.

SH-4 = system: SH-4;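 also: growth inhibition of SH-4 cells, read out with a cell viability assay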
Description: SANGER: Inhibition of human SH-4 cell growth in a cell viability assay.

U-698-M = system: U-698-M
Description: SANGER: Inhibition of human U-698-M cell growth in a cell viability assay.

LAN-6 = system: LAN-6;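 also: growth inhibition of LAN-6 cells, determined with a cell viability assay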
Description: SANGER: Inhibition of human LAN-6 cell growth in a cell viability assay.

BB30-HNC = system: BB30-HNC;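 also: growth inhibition of the cultured cell line, read out by a cell viability assay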
Description: SANGER: Inhibition of human BB30-HNC cell growth in a cell viability assay.

GCIY = system: GCIY;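 also: growth inhibition of the human GCIY cell line, read out by a cell viability assay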
Description: SANGER: Inhibition of human GCIY cell growth in a cell viability assay.

LB831-BLC = system: LB831-BLC;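 also: growth inhibition of LB831-BLC cells, read out with a cell viability assay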
Description: SANGER: Inhibition of human LB831-BLC cell growth in a cell viability assay.

LXF-289 cell line = system: LXF-289 cell line
Description: SANGER: Inhibition of human LXF-289 cell growth in a cell viability assay.

PANC-08-13 = system: PANC-08-13;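 also: cell growth inhibition, measured with a cell viability assay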
Description: SANGER: Inhibition of human PANC-08-13 cell growth in a cell viability assay.

MKN-45 = system: MKN-45;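 also: growth inhibition of human MKN-45 cells, measured with a cell viability assay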
Description: SANGER: Inhibition of human MKN45 cell growth in a cell viability assay.

DK-MG = system: DK-MG;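 also: growth inhibition of DK-MG cells, read out with a cell viability assay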
Description: SANGER: Inhibition of human DK-MG cell growth in a cell viability assay.

EFO-21 = system: EFO-21;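 also: growth inhibition of EFO-21 cells measured with a viability assay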
Description: SANGER: Inhibition of human EFO-21 cell growth in a cell viability assay.

EFM-19 = system: EFM-19;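 also: growth inhibition of human EFM-19 cells, measured in a cell viability assay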
Description: SANGER: Inhibition of human EFM-19 cell growth in a cell viability assay.

769-P = system: 769-P
Description: SANGER: Inhibition of human 769-P cell growth in a cell viability assay.

KP-N-YN = system: KP-N-YN;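 also: growth inhibition of KP-N-YN cells, read out with a cell viability assay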
Description: SANGER: Inhibition of human KP-N-YN cell growth in a cell viability assay.

BOKU = system: BOKU;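 also: growth inhibition of the human BOKU cell line, read out by a cell viability assay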
Description: SANGER: Inhibition of human BOKU cell growth in a cell viability assay.

MKN-7 = system: MKN-7;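 also: growth inhibition of MKN-7 cells, read out with a cell viability assay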
Description: SANGER: Inhibition of human MKN7 cell growth in a cell viability assay.

T98G = system: T98G;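 also: growth inhibition of T98G cells, read out by a cell viability assay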
Description: SANGER: Inhibition of human T98G cell growth in a cell viability assay.

5637 = system: 5637
Description: SANGER: Inhibition of human 5637 cell growth in a cell viability assay.

NCI-H2347 = system: NCI-H2347;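 also: growth inhibition of the cell line, read out with a cell viability assay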
Description: SANGER: Inhibition of human NCI-H2347 cell growth in a cell viability assay.

MKN-1 = system: MKN-1;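 also: growth inhibition of human MKN1 cells, read out by a cell viability measurement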
Description: SANGER: Inhibition of human MKN1 cell growth in a cell viability assay.

SAOS-2 = system: SAOS-2;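 also: growth inhibition of human Saos-2 cells determined by a cell viability assay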
Description: SANGER: Inhibition of human Saos-2 cell growth in a cell viability assay.

OAW-28 = system: OAW-28;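 also: growth inhibition of OAW-28 cells, read out with a cell viability assay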
Description: SANGER: Inhibition of human OAW-28 cell growth in a cell viability assay.

HSC-4 = system: HSC-4;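 also: growth inhibition of human HSC-4 cells, read out with a cell viability assay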
Description: SANGER: Inhibition of human HSC-4 cell growth in a cell viability assay.

Huh-7 = system: Huh-7;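 also: HuH-7 cell growth inhibition, read out with a cell viability assay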
Description: SANGER: Inhibition of human HuH-7 cell growth in a cell viability assay.

NCI-H1155 = system: NCI-H1155;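 also: cell growth inhibition measured by a viability assay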
Description: SANGER: Inhibition of human NCI-H1155 cell growth in a cell viability assay.

ESS-1 = system: ESS-1;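 also: growth inhibition of human ESS-1 cells, read out by a cell viability assay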
Description: SANGER: Inhibition of human ESS-1 cell growth in a cell viability assay.

MDA-MB-134-VI = system: MDA-MB-134-VI
Description: SANGER: Inhibition of human MDA-MB-134-VI cell growth in a cell viability assay.

SNU-C2B = system: SNU-C2B;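 also: cell viability readout used to measure compound-driven suppression of SNU-C2B cell proliferation, IC50 marking half-maximal growth inhibition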
Description: SANGER: Inhibition of human SNU-C2B cell growth in a cell viability assay.

LK-2 = system: LK-2;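 also: growth inhibition of LK-2 cells, read out with a viability assay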
Description: SANGER: Inhibition of human LK-2 cell growth in a cell viability assay.

J82 = system: J82;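 also: growth inhibition of J82 cells, read out with a cell viability assay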
Description: SANGER: Inhibition of human J82 cell growth in a cell viability assay.

SW837 = system: SW837;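 also: growth inhibition of SW837 cells, determined with a cell viability assay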
Description: SANGER: Inhibition of human SW837 cell growth in a cell viability assay.

MEL-HO = system: MEL-HO
Description: SANGER: Inhibition of human MEL-HO cell growth in a cell viability assay.

SW1990 = system: SW1990;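 also: cell growth inhibition determined with a viability assay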
Description: SANGER: Inhibition of human SW1990 cell growth in a cell viability assay.

C#Cc1cccc(Nc2ncnc3cc(OCCOC)c(OCCOC)cc23)c1 [ERLOTINIB]
IC50 (NEC8; Homo sapiens, NEC8): > 2000 nM
IC50 (TE-15; Homo sapiens, TE-15): > 2000 nM
IC50 (NB13; Homo sapiens, NB13): > 2000 nM
IC50 (D-336MG): > 2000 nM
IC50 (LB996-RCC; Homo sapiens, LB996-RCC): 402 nM
IC50 (ECC4; Homo sapiens, ECC4): > 2000 nM
IC50 (Kasumi 1): > 2000 nM
IC50 (LB647-SCLC; Homo sapiens, LB647-SCLC): > 2000 nM
IC50 (NCI-H23; Homo sapiens, NCI-H23): > 2000 nM
IC50 (TGBC1TKB; Homo sapiens, TGBC1TKB): > 2000 nM
IC50 (COLO-320-HSR; Homo sapiens, COLO-320-HSR): > 2000 nM
IC50 (SNU-5; Homo sapiens, SNU-5): > 2000 nM
IC50 (LOUCY; Homo sapiens, LOUCY): > 2000 nM
IC50 (CCRF-CEM; Homo sapiens, CCRF-CEM): > 2000 nM
IC50 (SH-4; Homo sapiens, SH-4): > 2000 nM
IC50 (U-698-M; Homo sapiens, U-698-M): > 2000 nM
IC50 (LAN-6; Homo sapiens, LAN-6): > 2000 nM
IC50 (BB30-HNC; Homo sapiens, BB30-HNC): 148 nM
IC50 (GCIY; Homo sapiens, GCIY): > 2000 nM
IC50 (LB831-BLC; Homo sapiens, LB831-BLC): > 2000 nM
IC50 (LXF-289 cell line; Homo sapiens, LXF-289): > 2000 nM

O=C(O)c1ccc(-c2c[nH]c3ncc(-c4ccccc4)cc23)cc1C1CCCC1 [GSK-650394]
IC50 (NEC8; Homo sapiens, NEC8): > 16000 nM
IC50 (TE-15; Homo sapiens, TE-15): 2590 nM
IC50 (PANC-08-13; Homo sapiens, PANC-08-13): > 16000 nM
IC50 (MKN-45; Homo sapiens, MKN-45): > 16000 nM
IC50 (NB13; Homo sapiens, NB13): > 16000 nM
IC50 (DK-MG; Homo sapiens, DK-MG): > 16000 nM
IC50 (EFO-21; Homo sapiens, EFO-21): > 16000 nM
IC50 (LB996-RCC; Homo sapiens, LB996-RCC): > 16000 nM
IC50 (ECC4; Homo sapiens, ECC4): > 16000 nM
IC50 (EFM-19; Homo sapiens, EFM-19): > 16000 nM
IC50 (LB647-SCLC; Homo sapiens, LB647-SCLC): 7930 nM
IC50 (769-P; Homo sapiens, 769-P): 4890 nM
IC50 (KP-N-YN; Homo sapiens, KP-N-YN): 15800 nM
IC50 (BOKU; Homo sapiens, BOKU): > 16000 nM
IC50 (NCI-H23; Homo sapiens, NCI-H23): > 16000 nM
IC50 (MKN-7; Homo sapiens, MKN-7): > 16000 nM
IC50 (T98G; Homo sapiens, T98G): > 16000 nM
IC50 (TGBC1TKB; Homo sapiens, TGBC1TKB): > 16000 nM
IC50 (COLO-320-HSR; Homo sapiens, COLO-320-HSR): > 16000 nM
IC50 (5637; Homo sapiens): 3210 nM
IC50 (SNU-5; Homo sapiens, SNU-5): > 16000 nM
IC50 (LOUCY; Homo sapiens, LOUCY): > 16000 nM
IC50 (NCI-H2347; Homo sapiens, NCI-H2347): > 16000 nM
IC50 (MKN-1; Homo sapiens, MKN-1): 9190 nM
IC50 (SAOS-2; Homo sapiens, SAOS-2): > 16000 nM
IC50 (OAW-28; Homo sapiens, OAW-28): > 16000 nM
IC50 (HSC-4; Homo sapiens, HSC-4): > 16000 nM
IC50 (CCRF-CEM; Homo sapiens, CCRF-CEM): > 16000 nM
IC50 (Huh-7; Homo sapiens, Huh-7): > 16000 nM
IC50 (NCI-H1155; Homo sapiens, NCI-H1155): > 16000 nM
IC50 (ESS-1; Homo sapiens, ESS-1): > 16000 nM
IC50 (SH-4; Homo sapiens, SH-4): > 16000 nM
IC50 (U-698-M; Homo sapiens, U-698-M): > 16000 nM
IC50 (MDA-MB-134-VI; Homo sapiens, MDA-MB-134-VI): > 16000 nM
IC50 (LAN-6; Homo sapiens, LAN-6): > 16000 nM
IC50 (SNU-C2B; Homo sapiens, SNU-C2B): > 16000 nM
IC50 (BB30-HNC; Homo sapiens, BB30-HNC): 2330 nM
IC50 (GCIY; Homo sapiens, GCIY): > 16000 nM
IC50 (LB831-BLC; Homo sapiens, LB831-BLC): > 16000 nM
IC50 (LK-2; Homo sapiens, LK-2): > 16000 nM
IC50 (J82; Homo sapiens, J82): 8200 nM
IC50 (SW837; Homo sapiens, SW837): > 16000 nM
IC50 (LXF-289 cell line; Homo sapiens, LXF-289): 1400 nM
IC50 (MEL-HO; Homo sapiens, MEL-HO): > 16000 nM
IC50 (SW1990; Homo sapiens, SW1990): > 16000 nM

COC1=CC(c2cc3ccccc3[nH]2)=N/C1=C\c1[nH]c(C)cc1C [OBATOCLAX MESYLATE]
IC50 (NEC8; Homo sapiens, NEC8): 55.9 nM
IC50 (TE-15; Homo sapiens, TE-15): 203 nM
IC50 (PANC-08-13; Homo sapiens, PANC-08-13): 1340 nM
IC50 (MKN-45; Homo sapiens, MKN-45): 1990 nM
IC50 (NB13; Homo sapiens, NB13): 64.2 nM
IC50 (DK-MG; Homo sapiens, DK-MG): 710 nM
IC50 (EFO-21; Homo sapiens, EFO-21): 841 nM
IC50 (LB996-RCC; Homo sapiens, LB996-RCC): 471 nM
IC50 (ECC4; Homo sapiens, ECC4): 5090 nM
IC50 (EFM-19; Homo sapiens, EFM-19): 124 nM
IC50 (LB647-SCLC; Homo sapiens, LB647-SCLC): 15700 nM
IC50 (769-P; Homo sapiens, 769-P): < 62.5 nM
IC50 (KP-N-YN; Homo sapiens, KP-N-YN): > 16000 nM
IC50 (BOKU; Homo sapiens, BOKU): 1280 nM
IC50 (NCI-H23; Homo sapiens, NCI-H23): 10600 nM
IC50 (MKN-7; Homo sapiens, MKN-7): 1890 nM
IC50 (T98G; Homo sapiens, T98G): 5070 nM
IC50 (TGBC1TKB; Homo sapiens, TGBC1TKB): 620 nM
IC50 (COLO-320-HSR; Homo sapiens, COLO-320-HSR): 52.9 nM
IC50 (5637; Homo sapiens): 83.7 nM
IC50 (SNU-5; Homo sapiens, SNU-5): 856 nM
IC50 (LOUCY; Homo sapiens, LOUCY): < 62.5 nM
IC50 (NCI-H2347; Homo sapiens, NCI-H2347): 888 nM
IC50 (MKN-1; Homo sapiens, MKN-1): 304 nM
IC50 (SAOS-2; Homo sapiens, SAOS-2): 246 nM
IC50 (OAW-28; Homo sapiens, OAW-28): 202 nM
IC50 (HSC-4; Homo sapiens, HSC-4): 667 nM
IC50 (CCRF-CEM; Homo sapiens, CCRF-CEM): 771 nM
IC50 (Huh-7; Homo sapiens, Huh-7): 379 nM
IC50 (NCI-H1155; Homo sapiens, NCI-H1155): 6960 nM
IC50 (ESS-1; Homo sapiens, ESS-1): 72.5 nM
IC50 (SH-4; Homo sapiens, SH-4): < 62.5 nM
IC50 (U-698-M; Homo sapiens, U-698-M): 94.1 nM
IC50 (MDA-MB-134-VI; Homo sapiens, MDA-MB-134-VI): 4030 nM
IC50 (LAN-6; Homo sapiens, LAN-6): 1900 nM
IC50 (SNU-C2B; Homo sapiens, SNU-C2B): 868 nM
IC50 (BB30-HNC; Homo sapiens, BB30-HNC): < 62.5 nM
IC50 (GCIY; Homo sapiens, GCIY): 310 nM
IC50 (LB831-BLC; Homo sapiens, LB831-BLC): 444 nM
IC50 (LK-2; Homo sapiens, LK-2): 50.6 nM
IC50 (J82; Homo sapiens, J82): 109 nM
IC50 (SW837; Homo sapiens, SW837): 467 nM
IC50 (LXF-289 cell line; Homo sapiens, LXF-289): 260 nM
IC50 (MEL-HO; Homo sapiens, MEL-HO): 23.5 nM
IC50 (SW1990; Homo sapiens, SW1990): 239 nM

BLEOMYCIN
IC50 (NEC8; nec8): 26.9 nM
IC50 (TE-15; te-15): 3220 nM
IC50 (PANC-08-13; panc-08-13): 12100 nM
IC50 (MKN-45; mkn-45): 24.8 nM
IC50 (NB13; nb13): 36700 nM
IC50 (DK-MG; dk-mg): 85800 nM
IC50 (EFO-21; efo-21): 4330 nM
IC50 (LB996-RCC; lb996-rcc): 175 nM
IC50 (ECC4; ecc4): 56700 nM
IC50 (EFM-19; efm-19): 14.8 nM
IC50 (LB647-SCLC; lb647-sclc): 3140 nM
IC50 (769-P; 769-p): 123 nM
IC50 (KP-N-YN; kp-n-yn): 26300 nM
IC50 (BOKU; boku): 137 nM
IC50 (NCI-H23; nci-h23): 2470 nM
IC50 (MKN-7; mkn-7): 66500 nM
IC50 (T98G; t98g): 63700 nM
IC50 (TGBC1TKB; tgbc1tkb): 74100 nM
IC50 (COLO-320-HSR; colo-320-hsr): 3430 nM
IC50 5637: 29 nM
IC50 (SNU-5; snu-5): 643 nM
IC50 (LOUCY; loucy): 9.93 nM
IC50 (NCI-H2347; nci-h2347): 5120 nM
IC50 (MKN-1; mkn-1): 79.6 nM
IC50 (SAOS-2; saos-2): 172 nM
IC50 (OAW-28; oaw-28): 9210 nM
IC50 (HSC-4; hsc-4): 153000 nM
IC50 (CCRF-CEM; ccrf-cem): 78.7 nM
IC50 (Huh-7; huh-7): 2430 nM
IC50 (NCI-H1155; nci-h1155): 73200 nM
IC50 (ESS-1; ess-1): 187 nM
IC50 (SH-4; sh-4): 7850 nM
IC50 (U-698-M; u-698-m): 13000 nM
IC50 (MDA-MB-134-VI; mda-mb-134-vi): 340000 nM
IC50 (LAN-6; lan-6): 14600 nM
IC50 (SNU-C2B; snu-c2b): 2320 nM
IC50 (BB30-HNC; bb30-hnc): 16.3 nM
IC50 (GCIY; gciy): 12800 nM
IC50 (LB831-BLC; lb831-blc): 8380 nM
IC50 (LK-2; lk-2): 1690 nM
IC50 (J82; j82): 774 nM
IC50 (SW837; sw837): 1610 nM
IC50 (LXF-289 cell line; lxf-289): 644 nM
IC50 (MEL-HO; mel-ho): 850 nM
IC50 (SW1990; sw1990): 4240 nM
